Experimental data: patent US20050277586A1, “Peptide chemically modified with polyethylene glycol” (priority 2002, published 2005)

Legend:
[1] = tested on: Vero cell, T24 cell, A549 cell; assay: Nucleic acid-introducing ability, luciferase-expressing plasmid (procedure of Example 9); type: cell-based; conditions: for Nucleic acid-introducing ability: luciferase plasmid 1 μg/mL, highest count of peptide 1.25, 2.5 or 5 μM, cell line not stated
Source text: A cell line established from monkey kidney (Vero cell) and a human bladder cancer cell (T24 cell) purchased from American Type Culture Collection (ATCC) and human lung cancer cell (A549 cell) purchased from Dainippon Pharmaceutical were inoculated on a 24 well culture plate (manufactured by NALGEN NUNC) at 1×10^5 cells/well. Vero cell and A549 cell were cultivated in DMEM (manufactured by Life Technologies Oriental) supplemented with 10% fetal bovine serum (hereinafter referred to as FBS, manufactured by NICHIREI), and T24 cell was cultivated in McCoy's 5a (manufactured by Life Technologies Oriental) supplemented with 10% FBS in 5% CO2 atmosphere at 37° C. for 24 hours. After removing the medium, opti-MEM (manufactured by Life Technologies Oriental) prepared to have the concentration of the luciferase-expressing plasmid prepared in Example 7 of 1 μg/mL and the concentration of the peptide prepared in Example 1 of 1.25, 2.5, or 5 μM was added, and the cells were cultivated for 5 hours. Next, in the case of Vero cell and A549 cell, the culture medium was replaced with DMEM supplemented with 10% FBS, and in the case of T24 cell, the medium was replaced with McCoy's 5a supplemented with 10% FBS, and cultivation was continued in 5% CO2 atmosphere and at 37° C. for another 24 hours. The luciferase activity expressed in the cell was then measured by the method instructed in luciferase assay system (manufactured by Promega). To be more specific, the cells were washed with phosphate-buffered saline (hereinafter referred to as PBS, manufactured by SIGMA), and the cells were lyzed with Passive Lysis Buffer attached to the kit.
20 μL of this cell lysate and 100 μL of the Luciferase Assay Reagent II attached to the kit was added to a fluorescence-measuring plate (Microlite™ 1 plate, manufactured by Dynatech), and after mixing, fluorescence was measured for 1 second by using a multilabel counter (ARVO™ SY1420 MULTILABEL COUNTER, manufactured by Wallac Beltold.
Concentration of the protein in the cell lysate was measured by mixing 8 μL of the cell lysate and 200 μL of the protein assay solution (manufactured by Biorad) with 792 μL of ultrapure water in a disposable cuvette (UV fluorescent cuvette A204X, manufactured by Funakoshi), allowing the mixture to stand for 5 minutes at room temperature, and measuring the absorption at 595 nm with a spectrophotometer (DU640, manufactured by Beckman). Bovine serum albumin (BSA) was used for the standard protein. By using the thus obtained results, count per 1 second per 1 mg of protein of the cell lysate was calculated to thereby use the count as the luciferase activity, and the highest count in the three conditions of different peptide concentration was designated the gene-introducing ability of the peptide.

[2] = Measurement of turbidity in BSA (absorbance at 600 nm); type: physicochemical; conditions: 1% BSA, peptide 50 μM
Experimental: The solutions were evaluated for their absorbance at a wavelength of 600 nm by using a spectrophotometer (DU640, manufactured by Beckman).

[3] = target: phosphatidyl serine (binding of human Factor VIII); assay: Affinity for phosphatidyl serine (EIA, inhibition of human Factor VIII binding); conditions: for IC50: in the presence of 5% BSA, human Factor VIII 1 μg/mL
Experimental: The specific affinity of the peptide for phosphatidyl serine was evaluated by measuring activity of the peptide for inhibiting the binding of the human Factor VIII to phosphatidyl serine by using human Factor VIII which is known to bind to phosphatidyl serine but not to phosphatidyl choline in the presence of serum albumin. To be more specific, 100 μL of ethanol solution containing 10 μg/mL of phospholipids at a phosphatidyl serine (manufactured by SIGMA): phosphatidyl choline (manufactured by SIGMA) ratio of 3:7 was added to the wells of a 96 well plate (Immulon I, manufactured by Dynatech), and exsiccated by using a centrifugal evaporator (EC-95C, manufactured by Sakuma Seisakusho) at 40° C. for 40 minutes. 200 μL each of TBS (10 mM Tris-HCl (pH 7.4) containing 1% bovine serum albumin (BSA Fraction V, hereinafter referred to as BSA, manufactured by Seikagaku Corporation) and 0.9% (W/V) NaCl solution were added to each well, and the wells were blocked by allowing the plate to stand at 37° C. for 2.5 hours. After washing the plate with water, 100 μL of TBS solution supplemented with 5% BSA mixed with human Factor VIII (manufactured by American Diagnostica) at a final concentration 1 μg/mL and the peptide of predetermined dose prepared in Example 1 was added to each well, and the reaction was allowed to take place at 4° C. for 24 hours.
After the completion of the reaction, the human Factor VIII that became bound to the phosphatidyl serine was measured by enzyme immunoassay (EIA) in accordance with the general procedure described in a book (“Enzyme Immunoassay (3rd ed.)”, Eiji Ishikawa et al., Igaku-Shoin, 1987). To be more specific, the measurement was conducted by using anti-human Factor VIII mouse monoclonal antibody (ESH8, manufactured by American Diagnostica) for the primary antibody, horseradish peroxidase-labeled anti-mouse IgG antibody (P0260, manufactured by Daco) for the secondary antibody, and tetramethylbenzidine for the chromogenic substrate, and measuring the absorption at a wavelength of 450 nm by using a reference wavelength of 630 nm on a spectrophotometer (NJ-2100, manufactured by Intermed).
Intensity of the affinity of the peptide for the phosphatidyl serine was evaluated by using the value obtained by subtracting the absorption of the well having no human Factor VIII added thereto from the absorption of the well having only the human Factor VIII added thereto as the control value (100%), and designating the peptide concentration at which the value 0.5 was obtained when the value obtained by subtracting the absorption of the well having only the peptide added thereto from the absorption of the well having a mixture of the human Factor VIII and the peptide added thereto were divided by the control value as the IC50 value, and evaluating the intensity to be ++ when the IC50 value was up to 1 μM, and + when the intensity was more than 1 μM but not more than 10 μM. It is to be noted that the specific affinity was evaluated to be none when the intensity was 10 μM or more.

Substance | Nucleic acid-introducing ability [1] | OD 600 [2] | IC50 [3] [µM] | Ability of introducing the nucleic acid into a cell ([1]; procedure of Example 9) | Fluorescent count per 1 mg of protein per 1 second ([1]; procedure of Example 9) | Affinity for phosphatidyl serine ([3]; procedure of Example 20)
SEQ ID NO: 20: SEQ ID NO: 1 with three locations in the 18 amino acid sequence substituted (TRYLRLHPRSWVHQLALRTRYLRLHPRSWVHQLALRS) | 4+ (10,000,000 to less than 100,000,000) |  |  |  |  | 
TRYLRIHPRSWVHQIALKLKYLRIHPRSWVHQIALRS [SEQ ID NO: 7] | 2+ (100,000 to less than 1,000,000) | < 0.01 | 1 to 10 |  |  | 
SEQ ID NO: 26: SEQ ID NO: 1 with amino acid substitution so that it lacks the four sided 18 amino acid sequence (TRYLRIHPRSWVLQIALRLRYLRIHPRSWVLQIALRS) [reference compound] |  |  |  | no nucleic acid-introducing ability was found | less than 10,000 cps/mg protein | 
SEQ ID NO: 24: deletion mutant of the peptide of SEQ ID NO: 4 (TLRYLRIHPRSWLHQIALRS) | 1+ (10,000 to less than 100,000) |  |  | had the ability of introducing the nucleic acid into a cell |  | 
SEQ ID NO: 22: SEQ ID NO: 1 with three locations in the 18 amino acid sequence substituted (TRRLRIHPRRWVHRIALRLRRLRIHPRRWVHRIALRS) | 3+ (1,000,000 to less than 10,000,000) |  |  |  |  | 
TRYLRIHPKSWVHQIALRLRYLKIHPRSWVHQIALRS [SEQ ID NO: 8] | 3+ (1,000,000 to less than 10,000,000) | < 0.01 | 1 to 10 |  |  | 
TIHPRSWVHQIALRLRYLRIHPRSWVHQIAS [SEQ ID NO: 23] | 2+ (100,000 to less than 1,000,000) | < 0.01 | < 1 | had the ability of introducing the nucleic acid into a cell |  | 
SEQ ID NO: 18: SEQ ID NO: 1 with one or two locations in the 18 amino acid sequence substituted (TRYLRIHPRSWLHQIALRTRYLRIHPRSWLHQIALRS) | 4+ (10,000,000 to less than 100,000,000) |  |  |  |  | 
SEQ ID NO: 14: SEQ ID NO: 1 with one or two locations in the 18 amino acid sequence substituted (TRYLRIHPRSWSHQIALRLRYLRIHPRSWSHQIALRS) | 3+ (1,000,000 to less than 10,000,000) |  |  |  |  | 
TRYLRIHPRLWVHQIALRLRYLRIHPRLWVHQIALRS [SEQ ID NO: 11] | 3+ (1,000,000 to less than 10,000,000) | < 0.01 | 1 to 10 |  |  | 
SEQ ID NO: 13: SEQ ID NO: 1 with one or two locations in the 18 amino acid sequence substituted (TRYLRIHPRSLVHQIALRLRYLRIHPRSLVHQIALRS) | 3+ (1,000,000 to less than 10,000,000) |  |  |  |  | 
SEQ ID NO: 12: SEQ ID NO: 1 with one or two locations in the 18 amino acid sequence substituted (TRYLRIHPRSWVHQIALSLRYLRIHPRSWVHQIALSS) | 2+ (100,000 to less than 1,000,000) |  |  |  |  | 
Polylysine [reference compound] |  | ≥ 1 |  |  |  | no affinity for phosphatidyl serine
TRYLRIHPRSWVHNIALRLRYLRIHPRSWVHNIALRS [SEQ ID NO: 6] | 2+ (100,000 to less than 1,000,000) | < 0.01 | < 1 |  |  | 
SEQ ID NO: 9: SEQ ID NO: 1 with one or two locations in the 18 amino acid sequence substituted (TRYLRIHPRSWVHQIALRTRYLRIHPRSWVHQIALRS) | 3+ (1,000,000 to less than 10,000,000) |  |  |  |  | 
TRSLRIHPRSWVHQIALRLRSLRIHPRSWVHQIALRS [SEQ ID NO: 10] | 3+ (1,000,000 to less than 10,000,000) | < 0.01 | 1 to 10 |  |  | 
TRYLRIHPRSWVRQIALRLRYLRIHPRSWVRQIALRS [SEQ ID NO: 2] | 3+ (1,000,000 to less than 10,000,000) | < 0.01 | < 1 |  |  | 
TRYLRLHPRSWLHQLALRLRYLRLHPRSWLHQLALRS [SEQ ID NO: 19] | 4+ (10,000,000 to less than 100,000,000) | < 0.01 | < 1 |  |  | 
TRYLRIRPRSWVRQIALRLRYLRIRPRSWVRQIALRS [SEQ ID NO: 15] | 2+ (100,000 to less than 1,000,000) | < 0.01 | < 1 |  |  | 
TRSLRIHPRLWVHQIALRLRSLRIHPRLWVHQIALRS [SEQ ID NO: 17] | 2+ (100,000 to less than 1,000,000) | < 0.01 | < 1 |  |  | 
TRYLRIHPRSWVHQIRLRLRYLRIHPRSWVHQIRLRS [SEQ ID NO: 3] | 2+ (100,000 to less than 1,000,000) | < 0.01 | < 1 |  |  | 
TRFLRIHPRSWVHQIALRLRFLRIHPRSWVHQIALRS [SEQ ID NO: 5] | 2+ (100,000 to less than 1,000,000) | < 0.01 | < 1 |  |  | 
SEQ ID NO: 21: SEQ ID NO: 1 with three locations in the 18 amino acid sequence substituted (TKYLKIHPKSWVHQIALRLKYLKIHPKSWVHQIALRS) | 2+ (100,000 to less than 1,000,000) |  |  |  |  | 
